Test results: US10131649B2, “Bicyclic compounds as pest control agents” (BAYER CROPSCIENCE AKTIENGESELLSCHAFT, priority 2014, dated 2018)

test system: green peach aphid (Myzus persicae); test: Myzus persicae spray test (Chinese cabbage leaf discs); assay type: in vivo; conditions: foliar, 144 h, application rate 500 g/ha, after 6 days, Chinese cabbage leaf discs, 100% = all aphids killed, read-out: efficacy in %
Protocol: Myzus persicae—Spray Test
Solvent: • 78 parts by weight of acetone • 1.5 parts by weight of dimethylformamide
Emulsifier: alkylaryl polyglycol ether
To produce a suitable preparation of active compound, 1 part by weight of active compound is dissolved using the specified parts by weight of solvent and made up with water containing an emulsifier concentration of 1000 ppm until the desired concentration is attained. To produce further test concentrations, the formulation is diluted with emulsifier-containing water.
Discs of Chinese cabbage leaves (Brassica pekinensis) infested by all stages of the green peach aphid (Myzus persicae) are sprayed with an active compound formulation of the desired concentration.
After 6 days, the efficacy in % is determined. 100% means that all the aphids have been killed; 0% means that no aphids have been killed.

Compound | pest or weed control at 500 g/ha [%]
CSCC(C)C(=O)N(C)c1ccc2nn(-c3cnn(C)c3)cc2c1 (stereo not drawn) [Example 105, N,2-Dimethyl-N-(2-(1-methyl-1H-pyrazol-4-yl)-2H-indazol-5-yl)-3-(methylthio) propanamide] | 90

same assay, conditions: foliar, 144 h, read-out: efficacy in %

Compound | pest or weed control at 500 g/ha [%] | pest or weed control at 100 g/ha [%]
CN(C)C(=O)c1ccc2nn(-c3cccnc3)cc2c1 [Example 1] | 100 | –
O=C(NCC(F)(F)F)c1ccc2nn(-c3cccnc3)cc2c1 [Example 3] | 100 | –
CN(C)C(=O)c1ccc2nn(-c3cncc(F)c3)cc2c1 [Example 18] | 90 | –
O=C(NCC(F)(F)F)c1ccc2nn(-c3cncc(F)c3)cc2c1 [Example 19] | 90 | –
O=C(NCC(F)(F)F)c1ccc2nn(-c3cncnc3)cc2c1 [Example 26] | – | 90
CN(C)C(=O)c1ccc2nn(-c3cncnc3)cc2c1 [Example 27] | 90 | –
CCNC(=O)c1ccc2nn(-c3cncnc3)cc2c1 [Example 29] | – | 90
O=C(NCC(F)F)c1ccc2nn(-c3cncnc3)cc2c1 [Example 30] | 100 | –
CNC(=O)c1ccc2nn(-c3cncnc3)cc2c1 [Example 31] | 90 | –
CON(C)C(=O)c1ccc2nn(-c3cncnc3)cc2c1 [Example 32] | 100 | –
CC(F)(F)CNC(=O)c1ccc2nn(-c3cncnc3)cc2c1 [Example 33] | 100 | –
Cn1cc(-n2cc3cc(C(=O)NCC(F)(F)F)ccc3n2)cn1 [Example 37] | 90 | –
CSCCC(=O)N(C)c1ccc2nn(-c3cncc(F)c3)cc2c1 [Example 108] | 100 | –
CSCC(C)C(=O)N(C)c1ccc2nn(-c3cncc(F)c3)cc2c1 (stereo not drawn) [Example 109] | 100 | –
CSCC(C)C(=O)N(C)c1ccc2nn(-c3cccnc3)cc2c1 (stereo not drawn) [Example 110] | 90 | –
CSCCC(=O)N(C)c1ccc2nn(-c3cccnc3)cc2c1 [Example 111] | 90 | –
CN(C(=O)CC(C)(F)F)c1ccc2nn(-c3cccnc3)cc2c1 [Example 112] | 100 | –
CN(C(=O)CC(C)(F)F)c1ccc2nn(-c3cncc(F)c3)cc2c1 [Example 113] | 90 | –
Cc1ccc(C(=O)N(C)c2ccc3nn(-c4cncc(F)c4)cc3c2)cc1[S+]([O-])CC(F)(F)F (stereo not drawn) [Example 114] | 90 | –
Cc1ccc(C(=O)N(C)c2ccc3nn(-c4cccnc4)cc3c2)cc1[S+]([O-])CC(F)(F)F (stereo not drawn) [Example 115] | 100 | –
Cc1ccc(C(=O)N(C)c2ccc3nn(-c4cnn(C)c4)cc3c2)cc1[S+]([O-])CC(F)(F)F (stereo not drawn) [Example 116] | 90 | –
Cc1cc(F)c(C(=O)N(C)c2ccc3nn(-c4cncc(F)c4)cc3c2)cc1[S+]([O-])CC(F)(F)F (stereo not drawn) [Example 118] | 90 | –
CN(C(=O)CC[S+](C)[O-])c1ccc2nn(-c3cncc(F)c3)cc2c1 (stereo not drawn) [Example 121] | 100 | –
CC(C[S+](C)[O-])C(=O)N(C)c1ccc2nn(-c3cncc(F)c3)cc2c1 (stereo not drawn) [Example 122] | 100 | –
CN(C(=O)CC[S+](C)[O-])c1ccc2nn(-c3cccnc3)cc2c1 (stereo not drawn) [Example 123] | 90 | –
CN(C(=O)CCS(C)(=O)=O)c1ccc2nn(-c3cncc(F)c3)cc2c1 [Example 128] | 100 | –
CN(C(=O)CCS(C)(=O)=O)c1ccc2nn(-c3cccnc3)cc2c1 [Example 129] | 90 | –
CC(CS(C)(=O)=O)C(=O)N(C)c1ccc2nn(-c3cccnc3)cc2c1 (stereo not drawn) [Example 130] | 90 | –

test system: not listed separately; test: log P by HPLC on reversed-phase columns (OECD Guideline 117), [a] acidic pH 2.7, [b] neutral pH 7.8; assay type: physicochemical; conditions: reversed-phase (C18) HPLC column, acidic pH 2.7, read-out: logP[a]
Protocol: The log P values were determined in accordance with OECD Guideline 117 (EC Directive 92/69/EEC) by HPLC (high-performance liquid chromatography) using reversed-phase (RP) columns (C18), by the following methods:
[a] The LC-MS determination in the acidic range is carried out at pH 2.7 with 0.1% aqueous formic acid and acetonitrile (contains 0.1% formic acid) as eluents; linear gradient from 10% acetonitrile to 95% acetonitrile.
[b] LC-MS determination in the neutral range is effected at pH 7.8 with 0.001 molar aqueous ammonium hydrogencarbonate solution and acetonitrile as eluents; linear gradient from 10% acetonitrile to 95% acetonitrile.
Calibration is carried out using unbranched alkan-2-ones (having 3 to 16 carbon atoms) with known log P values (log P values determined on the basis of the retention times by linear interpolation between two successive alkanones).

chromatographic logP | Compound
0.87 | O=C(c1ccc2nn(-c3cccnc3)cc2c1)N1CCS(=O)(=O)CC1 [Example 93]
1.27 | c1cncc(-n2cc3cc(-c4cn[nH]c4)ccc3n2)c1 [Example 98, 5-(1H-Pyrazol-4-yl)-2-(pyridin-3-yl)-2H-indazole]

same assay, conditions: reversed-phase (C18) HPLC column, neutral pH 7.8, read-out: logP[b]

chromatographic logP | Compound
1.03 | O=C(c1ccc2nn(-c3cccnc3)cc2c1)N1CCS(=O)(=O)CC1 [Example 93]
1.3 | c1cncc(-n2cc3cc(-c4cn[nH]c4)ccc3n2)c1 [Example 98, 5-(1H-Pyrazol-4-yl)-2-(pyridin-3-yl)-2H-indazole]
